Test results published in patent publication US20230263826A1, “Compositions and Methods for Treatment and Prevention of Type 1 Diabetes” (The UAB Research Foundation, priority 2021, published 2023).

Tested on: female NOD mice
Test: Plasma lipidomics in FKGK18- and PBS-T-treated NOD mice that developed T1D
Type: in vivo, mouse
Settings: treatment initiated at 10 days or 4 weeks of age
Procedure: FIGS. 11A-11I show a comparison of select plasma lipids in diabetic NOD mice. NOD mice were treated with PBS-Tor with FKGK18, starting at 10 days or 4 weeks of age, and sacrificed at the onset of diabetes. Plasma was prepared from these mice and processed for lipidomics analyses. The data (mean±SEM) represent pmol of each lipid species in 100 or 50 µL plasma fo LTC4 (FIG. 11A), 15-HETE (FIG. 11B), 5-HETE (FIG. 11C), PGD2 (FIG. 11D), AA (FIG. 11E), So1P/So (FIG. 11F), EET/DHET (FIG. 11G), resolving D2 (FIG. 11H), and DHA (FIG. 11I). (Statistical analyses: Students′ t-test. N=4/group.).
Next, to determine if a proinflammatory landscape persists until T1D onset, Applicants performed lipidomic analyses with plasma from FKGK18- and PBS-T-treated NOD (starting at 10 days). […] Furthermore, the ratio of So1P/So was higher in diabetic PBS-T-NOD, in comparison with nondiabetic PBS-T- or FKGK18-treated NOD (FIG. 6F). […]
Analysis of sphingolipids, eicosanoids, and fatty acids by ultra performance liquid chromatography-electrospray ionization-tandem mass spectrometry. […] Sphingolipids, eicosanoids, and fatty acids were analyzed via mass spectrometry using an AB Sciex Triple Quad 5500 Mass Spectrometer. […] The MΦ (2.75 × 10^6) were administered i.p. to 8-week-old female NOD, and diabetes incidence was recorded through weekly blood glucose monitoring.

Q: What does the source list for `O=C(CCCCc1ccc2ccccc2c1)C(F)(F)F` [FKGK18]?
A: plasma PGD2 relative to PBS-T (d) groups (mice that developed T1D): decrease; plasma lipids vs PBS-T in mice that developed T1D (sacrificed at onset of diabetes, all lipids except PGD2): no differences
